34 molecules from US7163952B2, “Azole compound and medicinal use thereof” (Japan Tobacco Inc., priority 2001, dated 2007) can be followed below.

In general, melting point refers to the temperature of the solid-liquid transition. In the case of `O=C(O)c1ccc(N(CC2CCCCC2)c2nc(-c3cc(Cl)ccc3OCc3ccccc3)cs2)cc1` [Example 160, 4-(N-(4-(2-benzyloxy-5-chlorophenyl)-2-thiazolyl)-N-cyclohexylmethylamino)benzoic acid], the melting point lay in the range of 184 to 185 °C. The same measure for `CC(C)N(c1ccc(C(=O)O)cc1)c1nc(-c2ccc(NC(=O)c3ccc(N4CCOCC4)cc3)cc2)cs1.Cl`: 230 °C (dec.); for `CC(C)N(c1ccc(C(=O)O)cc1)c1nc(-c2cccc(OCc3ccc(C4CCCCC4)cc3)c2)cs1` [Example 141, 4-(N-(4-(3-(4-cyclohexylbenzyloxy)phenyl)-2-thiazolyl)-N-isopropylamino)benzoic acid]: 189 to 190 °C; for `CC(C)N(c1ccc(C(=O)O)c(Cl)c1)c1nc(-c2ccc(NC(=O)c3ccc(C4CCCCC4)cc3)cc2)cs1` [Example 38, 2-chloro-4-(N-(4-(4-(4-cyclohexylbenzoylamino)phenyl)-2-thiazolyl)-N-isopropylamino)benzoic acid]: 220 °C (dec.).

The molecule `O=C(O)c1ccc(CN(CC2CCCCC2)c2nc(-c3nc4ccc(OCc5ccccc5)cc4o3)cs2)cc1` [Example 220, 4-((N-(4-(6-benzyloxy-2-benzooxazolyl)-2-thiazolyl)-N-cyclohexylmethylamino)methyl)benzoic acid] registered a melting point of 117 to 119 °C.

`CC(C)Cc1ccc(CNc2ccc(-c3csc(N(CC4CCCCC4)c4ccc(C(=O)O)cc4)n3)cc2)cc1` [Example 131, 4-(N-cyclohexylmethyl-N-(4-(4-(4-isobutylbenzylamino)phenyl)-2-thiazolyl)amino)benzoic acid] came in with a melting point of 167 to 169 °C. In turn, `CN(Cc1ccc(C2CCCCC2)cc1)c1ccc(-c2csc(N(C)Cc3ccc(C(=O)[O-])cc3)n2)cc1.[K+]` gave a melting point of 240 °C. Consider `CN(Cc1ccc(C(=O)O)cc1)c1nc(-c2cnc(N(C)Cc3ccc(C4CCCCC4)cc3)c(Cl)c2)cs1` [Example 232, 4-((N-(4-(5-chloro-6-(N-(4-cyclohexylbenzyl)-N-methylamino)-3-pyridyl)-2-thiazolyl)-N-methylamino)methyl)benzoic acid], for which the melting point was in the range of 144 to 145 °C. `CC(C)N(Cc1ccccc1C(=O)O)c1nc(-c2ccc(OCc3ccc(C4CCCCC4)cc3)cc2)cs1` [Example 88, 2-((N-(4-(4-(4-cyclohexylbenzyloxy)phenyl)-2-thiazolyl)-N-isopropylamino)methyl)benzoic acid]: the melting point lay within 259 to 261 °C.

For `C=CCN(Cc1ccc(C2CCCCC2)cc1)c1ccc(-c2csc(N(C)Cc3ccc(C(=O)O)cc3)n2)cc1` [Example 119, 4-((N-(4-(4-(N-allyl-N-(4-cyclohexylbenzyl)amino)phenyl)-2-thiazolyl)-N-methylamino)methyl)benzoic acid], the melting point lay within 139 to 141 °C. The same measure for `CN(c1ccc(C(=O)O)cc1)c1nc(-c2cc(Cl)ccc2OCc2ccccc2)cs1` [Example 151, 4-(N-(4-(2-benzyloxy-5-chlorophenyl)-2-thiazolyl)-N-methylamino)benzoic acid]: 211 to 212 °C; for `CCOC(=O)c1ccc(CN(C)c2nc(-c3ccc(OCc4ccc(C5CCCCC5)cc4)cc3)cs2)cc1` [Example 249, ethyl 4-((N-(4-(4-(4-cyclohexylbenzyloxy)phenyl)-2-thiazolyl)-N-methylamino)methyl)benzoate]: 117 to 118 °C; for `CC(C)N(Cc1ccc(C(=O)O)cc1)c1nc(-c2cccc(NC(=O)c3ccc(C4CCCCC4)cc3)c2)cs1` [Example 146, 4-((N-(4-(3-(4-cyclohexylbenzoylamino)phenyl)-2-thiazolyl)-N-isopropylamino)methyl)benzoic acid]: 228 to 230 °C.

`CN(Cc1ccc([C@H]2CCC[C@H](O)C2)cc1)c1ccc(-c2csc(N(C)Cc3ccc(C(=O)O)cc3)n2)cc1` (relative stereo) [Example 206, trans-4-((N-(4-(4-(N-(4-(3-hydroxycyclohexyl)benzyl)-N-methylamino)phenyl)-2-thiazolyl)-N-methylamino)methyl)benzoic acid] returned a melting point of 159 to 161 °C. The same measure for `CN(Cc1ccc(C(F)(F)F)cc1)c1ccc(-c2csc(N(C)Cc3ccc(C(=O)O)cc3)n2)cc1` [Example 234, 4-((N-methyl-N-(4-(4-(N-methyl-N-(4-trifluoromethylbenzyl)amino)phenyl)-2-thiazolyl)amino)methyl)benzoic acid]: 180 to 181 °C; for `CC(C)(C)c1ccc(C(=O)Nc2ccc(-c3csc(Nc4ccc(C(=O)O)cc4)n3)cc2)cc1` [Example 5, 4-(4-(4-(4-tert-butylbenzoylamino)phenyl)-2-thiazolylamino)benzoic acid]: 250 °C (dec.); for `CN(c1ccc(C(=O)O)cc1)c1nc(-c2ccc(OCc3ccc(Cl)c(Cl)c3)cc2)cs1` [Example 89, 4-(N-(4-(4-(3,4-dichlorobenzyloxy)phenyl)-2-thiazolyl)-N-methylamino)benzoic acid]: 230 °C (dec.). In turn, `CC(=O)OC(C)OC(=O)c1ccc(CN(C)c2nc(-c3ccc(OCc4ccc(C5CCCCC5)cc4)cc3)cs2)cc1` (stereo not shown) [Example 250, 1-acetoxyethyl 4-((N-(4-(4-(4-cyclohexylbenzyloxy)phenyl)-2-thiazolyl)-N-methylamino)methyl)benzoate] had a melting point of 116 to 117 °C. The same measure for `CN(Cc1ccc(C2CCCCC2)cc1)c1cc(-c2csc(N(C)Cc3ccc(C(=O)O)cc3)n2)cc(Cl)n1` [Example 228, 4-((N-(4-(2-chloro-6-(N-(4-cyclohexylbenzyl)-N-methylamino)-4-pyridyl)-2-thiazolyl)-N-methylamino)methyl)benzoic acid]: 155 to 157 °C; for `O=C(O)c1ccc(N(CCC2CCCCC2)c2nc(-c3cc(Cl)ccc3OCc3ccc(Cl)c(Cl)c3)cs2)cc1` [Example 178, 4-(N-(4-(5-chloro-2-(3,4-dichlorobenzyloxy)phenyl)-2-thiazolyl)-N-(2-cyclohexylethyl)amino)benzoic acid]: 195 to 198 °C; for `CC(C)N(c1ccc(C(=O)O)cc1)c1nc(-c2ccc(NC(=O)CCCC3CCCCC3)cc2)cs1` [Example 46, 4-(N-(4-(4-(4-cyclohexylbutyrylamino)phenyl)-2-thiazolyl)-N-isopropylamino)benzoic acid]: 230 °C (dec.). The same measure for `O=C(O)c1cc(Cc2nc(-c3cc(Cl)ccc3OCc3ccccc3)cs2)ccc1O` [Example 158, 5-(4-(2-benzyloxy-5-chlorophenyl)-2-thiazolylmethyl)-2-hydroxybenzoic acid]: 212 to 213 °C. The same measure for `CC(C)N(Cc1ccc(C(=O)O)cc1)c1nc(-c2ccc(NC(=O)c3ccc(N4CCOCC4)cc3)cc2)cs1` [Example 63, 4-((N-isopropyl-N-(4-(4-(4-morpholinobenzoylamino)phenyl)-2-thiazolyl)amino)methyl)benzoic acid]: 250 °C (dec.); for `CN(c1ccc(C(=O)O)cc1)c1nc(-c2ccc(NCc3ccc(C4CCCCC4)cc3)cc2)cs1.O=S(=O)(O)O`: 239 °C (dec.); for `O=C(O)c1ccc(N(CC2CCCCC2)c2nc(-c3nc4ccc(OCc5ccc(F)c(F)c5)cc4o3)cs2)cc1` [Example 190, 4-(N-cyclohexylmethyl-N-(4-(6-(3,4-difluorobenzyloxy)-2-benzooxazolyl)-2-thiazolyl)amino)benzoic acid]: 228 to 230 °C. As to `CN(Cc1ccc(C(=O)O)cc1)c1nc(-c2ccc(N(C)Cc3ccc(C4CCCCC4)cc3)c(Cl)c2)cs1` [Example 242, 4-((N-(4-(3-chloro-4-(N-(4-cyclohexylbenzyl)-N-methylamino)phenyl)-2-thiazolyl)-N-methylamino)methyl)benzoic acid], the melting point was 149 to 150 °C.

Molecule `CN(CCCc1ccccc1)c1ccc(-c2csc(N(C)Cc3ccc(C(=O)O)cc3)n2)cc1` [Example 225, 4-((N-methyl-N-(4-(4-(N-methyl-N-(3-phenylpropyl)amino)phenyl)-2-thiazolyl)amino)methyl)benzoic acid] yielded a melting point of 127 to 128 °C.

In turn, `Cc1oc(=O)oc1COC(=O)c1ccc(CN(C)c2nc(-c3ccc(OCc4ccc(C5CCCCC5)cc4)cc3)cs2)cc1` [Example 273, 5-methyl-2-oxo-1,3-dioxl-4-ylmethyl 4-((N-(4-(4-(4-cyclohexylbenzyloxy)phenyl)-2-thiazolyl)-N-methylamino)methyl)benzoate] yielded a melting point of 87 to 92 °C.

Consider `CC(C)N(c1ccc(C(=O)O)cc1)c1nc(-c2ccc(NC(=O)C3CCCCC3)cc2)cs1` [Example 12, 4-(N-(4-(4-(cyclohexanecarbonylamino)phenyl)-2-thiazolyl)-N-isopropylamino)benzoic acid], for which the melting point is 230 °C (dec.). As to `O=C(O)c1ccc(Nc2nc(-c3ccc(OCc4ccc(C5CCCCC5)cc4)cc3)cs2)c(OCCC2CCCCC2)c1` [Example 72, 4-(4-(4-(4-cyclohexylbenzyloxy)phenyl)-2-thiazolylamino)-3-(2-cyclohexylethoxy)benzoic acid], the melting point is 230 °C (dec.). The same measure for `CN(c1ccc(C(=O)O)cc1)c1nc(-c2ccc(NCc3ccc(C4CCCCC4)cc3)cc2)cs1.CS(=O)(=O)O`: 231 to 233 °C; for `CCOC(=O)OC(C)OC(=O)c1ccc(CN(C)c2nc(-c3ccc(OCc4ccc(C5CCCCC5)cc4)cc3)cs2)cc1` (stereo not shown) [Example 269, 1-ethoxycarbonyloxyethyl 4-((N-(4-(4-(4-cyclohexylbenzyloxy)phenyl)-2-thiazolyl)-N-methylamino)methyl)benzoate]: 99 to 101 °C. The same measure for `CC(C)(c1ccc(C(=O)O)cc1)c1nc(-c2ccc(NC(=O)c3ccc(N4CCCCC4)cc3)cc2)cs1` [Example 45, 4-(1-methyl-1-(4-(4-(4-piperidinobenzoylamino)phenyl)-2-thiazolyl)ethyl)benzoic acid]: 268 to 271 °C; for `CC(C)Oc1ccc(C(=O)Nc2ccc(-c3csc(Cc4ccc(C(=O)O)cc4)n3)cc2)cc1` [Example 69, 4-(4-(4-(4-isopropoxybenzoylamino)phenyl)-2-thiazolylmethyl)benzoic acid]: 230 °C (dec.).
